Measurements as given in PubChem BioAssay AID1033 (Sanford-Burnham Center for Chemical Genomics, 2008).
Several values for one entry are separate records, joined by “and”; a condition that tells them apart may be missing. Equal entries are not always repeated. Activity calls are given as the source filed them. No rule for the calls is given here.

Each molecule was assayed against Chaperone protein DnaK (Escherichia coli (strain K12)) (UniProt P0A6Y8) (assay: binders of DnaK substrate-binding domain, biophysical, NMR, chaperone (AID 1033)). Conditions: Purified DnaK SBD, NMR ligand binding.
Chaperone protein DnaK (Escherichia coli (strain K12)), sequence (P0A6Y8 whole entry, looked up, the tested form may be a part): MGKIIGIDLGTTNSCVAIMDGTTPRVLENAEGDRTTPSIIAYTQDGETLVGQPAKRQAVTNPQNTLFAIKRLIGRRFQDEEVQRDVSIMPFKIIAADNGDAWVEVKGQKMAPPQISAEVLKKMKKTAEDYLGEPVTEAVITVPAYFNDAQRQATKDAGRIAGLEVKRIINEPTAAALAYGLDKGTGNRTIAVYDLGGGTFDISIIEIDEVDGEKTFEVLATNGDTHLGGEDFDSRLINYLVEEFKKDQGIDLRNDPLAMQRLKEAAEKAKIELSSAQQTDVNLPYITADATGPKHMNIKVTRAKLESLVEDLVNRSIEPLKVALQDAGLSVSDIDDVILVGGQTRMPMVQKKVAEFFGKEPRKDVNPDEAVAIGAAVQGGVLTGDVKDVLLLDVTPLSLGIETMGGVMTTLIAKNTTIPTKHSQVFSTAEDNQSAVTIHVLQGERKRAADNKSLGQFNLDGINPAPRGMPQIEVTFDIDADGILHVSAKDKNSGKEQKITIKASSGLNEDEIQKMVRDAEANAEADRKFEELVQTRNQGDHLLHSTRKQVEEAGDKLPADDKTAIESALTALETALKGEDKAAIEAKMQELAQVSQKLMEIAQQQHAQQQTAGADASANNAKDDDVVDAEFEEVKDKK

Row | SMILES | Kd
1 | Oc1ccc(-n2cncn2)cc1 | > 4 mM (inactive)
2 | NCc1c[nH]c2ccccc12 | > 4 mM (inactive)
3 | CC(=O)c1ccc(NS(=O)(=O)c2cccc(C)c2)cc1 | > 4 mM (inactive)
4 | COc1cccc(NC(=O)c2cnn(C)c2Cl)c1 | > 4 mM (inactive)
5 | Cc1cc(N2CCCC2=O)c(N)cc1N | > 4 mM (inactive)
6 | Cc1ccc(N)nc1 | > 4 mM (inactive)
7 | COc1ccc(C2(C)CC(=O)NC2=O)cc1 (centres undefined) | > 4 mM (inactive)
8 | Cn1cc(Cl)c(C(=O)Nc2ccncc2)n1 | > 4 mM (inactive)
9 | CN(c1ccccc1C(=O)N1CCCC1)S(C)(=O)=O | > 4 mM (inactive)
10 | CC1(C)N([O-])c2cc([N+](=O)[O-])ccc2[N+]1=O | > 4 mM (inactive)
11 | CC[C@H]1CN2CCc3cc(OC)c(OC)cc3C2C[C@@H]1CC1NCCc2cc(OC)c(OC)cc21 (some centres undefined) | > 4 mM (inactive)
12 | OCc1ccc(-c2ccccn2)s1 | > 4 mM (inactive)
13 | COc1cc(-c2nnc(NC(C)=O)o2)cc(OC)c1OC | > 4 mM (inactive)
14 | COc1c(O)cccc1O | > 4 mM (inactive)
15 | C1CCN2C[C@@H]3C[C@H](CN4CCCC[C@@H]34)[C@H]2C1 | > 4 mM (inactive)
16 | CCOC(=O)c1c(C)n([O-])c2ccccc2[n+]1=O | > 4 mM (inactive)
17 | COc1ccccc1NC(=O)c1snnc1C | > 4 mM (inactive)
18 | CC(O)c1ccc(C(C)O)cc1 (centres undefined) | > 4 mM (inactive)
19 | Cc1sc2nc(-c3ccco3)oc(=O)c2c1C | > 4 mM (inactive)
20 | CC(=O)Nc1cc(C(F)(F)F)ccc1N1CCOCC1 | > 4 mM (inactive)
21 | Nc1nnc(SCc2ccc(F)cc2)s1 | > 4 mM (inactive)
22 | CC1(C)C2CC[C@]3(C)C(C(=O)C=C4[C@@H]5C[C@@](C)(C(=O)O)CC[C@]5(C)CC[C@]43C)[C@@]2(C)CC[C@@H]1O (some centres undefined) | > 4 mM (inactive)
23 | CCC(C)C(=O)O[C@H]1[C@H](O)C2C(CN3CC(C)CCC3[C@@]2(C)O)C2C[C@]34O[C@]5(O)C(OC(=O)C(C)(O)C(C)O)CC[C@@]3(C)C5C(OC(C)=O)[C@@H](OC(C)=O)C4[C@@]21O (some centres undefined) | > 4 mM (inactive)
24 | COc1ccc(NC(=O)c2ccc[n+]([O-])c2)cc1 | > 4 mM (inactive)
25 | NC(=O)c1ccsc1NC(=O)c1cccnc1 | > 4 mM (inactive)

Row | SMILES | Kd
26 | O=C(NCc1ccccc1F)c1cccs1 | 0.158 mM and < 0.2 mM
27 | CC1=NCCc2c1[nH]c1cc(O)ccc21 | > 4 mM (inactive)
28 | Cn1c(=O)n(C)c2cc(C(N)=O)ccc21 | > 4 mM (inactive)
29 | NCc1ccc2sccc2c1 | > 4 mM (inactive)
30 | C[C@]12CCC(=O)C=C1CCC1C2C(=O)C[C@@]2(C)C1CC[C@]2(O)C(=O)CO (some centres undefined) | > 4 mM (inactive)
31 | O=C(NCc1cccs1)c1nc2ncccn2n1 | inactive
32 | O=C(O)CSc1nnc(-c2cccs2)o1 | > 4 mM (inactive)
33 | COc1cc2c(cc1OC)[C@@H]1C(=O)c3ccc4c(c3O[C@@H]1CO2)CC(C(C)C)O4 (some centres undefined) | > 4 mM (inactive)
34 | Cc1nn(C)c(N2CCOCC2)c1N | > 4 mM (inactive)
35 | O=C(O)CN1CCNCC1 | > 4 mM (inactive)
36 | O=C(c1ccccc1)c1ccccc1C(=O)N1CCCC1 | > 4 mM (inactive)
37 | O=S1(=O)CCC2CC=CCC21 (centres undefined) | > 4 mM (inactive)
38 | CNc1nc(SC)nc(N2CCOCC2)n1 | > 4 mM (inactive)
39 | FC(F)(F)c1nnc2ccc(N3CCOCC3)nn12 | > 4 mM (inactive)
40 | NCCc1nc2ccccc2[nH]1 | > 4 mM (inactive)
41 | NCc1ccc(CN2CCOCC2)cc1 | > 4 mM (inactive)
42 | NS(=O)(=O)c1ccc(NC(=O)C(F)(F)F)cc1 | > 4 mM (inactive)
43 | COc1ccc(-c2c(O)c3c(OC)c4c(cc3oc2=O)OC(C)(C)CC4)cc1 | > 4 mM (inactive)
44 | O=C1NCCCC1C(=O)N/N=C/c1ccccc1 (centres undefined) | > 4 mM (inactive)
45 | O=C(c1ccccc1)N1CCN(c2ccccc2F)CC1 | > 4 mM (inactive)
46 | CC(=O)Nc1ccc(CN2CCOCC2)cc1 | > 4 mM (inactive)
47 | NC(=O)c1ccc(NC(=O)c2cccnc2)cc1 | > 4 mM (inactive)
48 | CC1(C)C(=O)[C@@H]2O[C@@H]2[C@@]2(C)C1C[C@@H](O)[C@]1(C)C2CC[C@@]2(C)[C@H](c3ccoc3)OC(=O)C3OC321 (some centres undefined) | > 4 mM (inactive)
49 | NC(N)=Nc1nc2ccccc2o1 | > 4 mM (inactive)
50 | COC(=O)c1ccc(N2CCOCC2)nc1 | > 4 mM (inactive)

Row | SMILES | Kd
51 | Cc1cc(=O)cc(C)n1-c1ccccc1N | > 4 mM (inactive)
52 | CC(=O)c1cc(C)ccc1OC(=O)c1cccnc1 | > 4 mM (inactive)
53 | Nc1nc(O)c(C2=c3cc(Cl)ccc3=NC2=O)s1 | > 4 mM (inactive)
54 | CC(=O)Nc1cccc(NC(=O)c2ccco2)c1 | > 4 mM (inactive)
55 | N=Nc1c(O)[nH]c2ccccc12 | > 4 mM (inactive)
56 | O=C(Nc1cccnc1)c1c(F)cccc1F | > 4 mM (inactive)
57 | Cc1ccc(C(=O)CS(C)(=O)=O)cc1 | > 4 mM (inactive)
58 | CN1C2CC3C[C@H]1C(O3)C2O (some centres undefined) | > 4 mM (inactive)
59 | CC1(C)NC(=O)N(CN2CCOCC2)C1=O | > 4 mM (inactive)
60 | CN(C)N1C(=O)c2ccccc2C1=O | > 4 mM (inactive)
61 | COc1c(F)c(F)c(-c2csc(N)n2)c(F)c1F | > 4 mM (inactive)
62 | CC(=O)NC12CC3CC(C)(C1)CC(NC(C)=O)(C3)C2 | > 4 mM (inactive)
63 | Cc1ccccc1CSc1nncn1N | > 4 mM (inactive)
64 | NN1C(=O)CSC1=Nc1ccccc1 | > 4 mM (inactive)
65 | Oc1ccccc1N1CCCC1 | > 4 mM (inactive)
66 | Cc1cc(=O)cc(C)n1NC(N)=S | > 4 mM (inactive)
67 | CNC(=O)c1cccc(NC(=S)NC)c1 | > 4 mM (inactive)
68 | CNC(=S)Nc1cccc(C(=O)O)c1 | > 4 mM (inactive)
69 | CCN1CCC(NC2CCC(O)CC2)CC1 (centres undefined) | > 4 mM (inactive)
70 | Cc1nnc(NCc2cccnc2)[nH]c1=O | > 4 mM (inactive)
71 | O=C1c2cccnc2C(=O)N1Cc1ccco1 | > 4 mM (inactive)
72 | Cc1cc(C(=O)NCc2ccccc2Br)no1 | > 4 mM (inactive)
73 | O=C(Nc1cnc2ccccn2c1=O)c1ccc(F)cc1 | > 4 mM (inactive)
74 | COC(=O)c1sc(N)nc1C | > 4 mM (inactive)
75 | O=C(Cc1cccs1)Nc1ccccn1 | > 4 mM (inactive)

Row | SMILES | Kd
76 | Cc1nnc(SCc2cccs2)[nH]c1=O | > 4 mM (inactive)
77 | O=C1CSC2(CN3CCC2CC3)N1 (centres undefined) | > 4 mM (inactive)
78 | O=C1NC(=O)C(C(=S)Nc2ccccc2)C(=O)N1 | > 4 mM (inactive)
79 | Cc1c(C)c2c(c(C)c1O)CCC(C)(CCCC(C)CCCC(C)CCCC(C)C)O2 (centres undefined) | > 4 mM (inactive)
80 | CC(=O)Nc1ccc(C(=O)NC2CCSC2=O)cc1 (centres undefined) | > 4 mM (inactive)
81 | Cc1ccc2cc(N)ccc2n1 | > 4 mM (inactive)
82 | O=c1c(O)c(-c2ccc(O)cc2O)oc2cc(O)cc(O)c12 | > 4 mM (inactive)
83 | O=C(O)CCN1CCc2ccccc2C1c1ccncc1 (centres undefined) | > 4 mM (inactive)
84 | Cc1ccccc1C(=O)Nn1cnnc1 | > 4 mM (inactive)
85 | CNc1nnc(CSc2nc(C)cc(C)n2)s1 | > 4 mM (inactive)
86 | COc1ccc2c(c1)c1n[nH]c(=S)nc1n2C | > 4 mM (inactive)
87 | Cc1oc(-c2ccccc2)cc1C(=O)O | > 4 mM (inactive)
88 | CCCn1c(C)cc(=O)[nH]c1=O | > 4 mM (inactive)
89 | CC1(C)Oc2ccc(N)cc2O1 | > 4 mM (inactive)
90 | Cc1nnc(SCC(=O)Nc2ccccc2)[nH]c1=O | > 4 mM (inactive)
91 | NC(=O)c1ccc(NC(=O)c2ccco2)cc1 | > 4 mM (inactive)
92 | O=C(O)C1NCCc2ccccc21 (centres undefined) | > 4 mM (inactive)
93 | OCCNc1nc2ccc(Cl)cc2[nH]1 | > 4 mM (inactive)
94 | OC1CCC(C(F)(F)F)CC1 (centres undefined) | > 4 mM (inactive)
95 | O=C(O)C1CC(=O)N(C2Cc3ccccc3C2)C1 (centres undefined) | > 4 mM (inactive)
96 | Cc1cc(C)n(-c2nc(N)cc(=O)[nH]2)n1 | > 4 mM (inactive)
97 | O=C(O)c1cccc2c1OCCCO2 | > 4 mM (inactive)
98 | COc1c(C(C)C)oc2cc3oc(=O)ccc3cc12 | > 4 mM (inactive)
99 | CC1CCN(C(=O)c2ccc3c(c2)OCCO3)CC1 | > 4 mM (inactive)
100 | Cc1nc(-c2ccc(NS(C)(=O)=O)cc2)cs1 | > 4 mM (inactive)

Row | SMILES | Kd
101 | NC(=O)C1CCN(C(=O)c2ccco2)CC1 | > 4 mM (inactive)
102 | O=C1CC(N2CCC(O)CC2)C(=O)N1c1ccc(F)cc1 (centres undefined) | > 4 mM (inactive)
103 | CC[C@@]1(O)C(=O)OCc2c1cc1n(c2=O)Cc2cc3ccccc3nc2-1 | > 4 mM (inactive)
104 | Cc1cc(=O)n2ncn(Cc3ccccc3)c2n1 | > 4 mM (inactive)
105 | CN(C)CCCN1CNC(=S)NC1 | > 4 mM (inactive)
106 | CC(=O)NC1=NN(c2ccccc2)C(=O)C1 | > 4 mM (inactive)
107 | O=C(O)Cc1nc(-c2ccncc2)n[nH]1 | > 4 mM (inactive)
108 | CC(=O)N/N=C(\C)c1cccc(N)c1 | > 4 mM (inactive)
109 | Oc1cc(O)c2c(c1)O[C@H](c1cc(O)c(O)c(O)c1)[C@H](O)C2 | > 4 mM (inactive)
110 | Nc1ccc(O)cn1 | > 4 mM (inactive)
111 | O=C(O)c1ccc2c(c1)CCO2 | > 4 mM (inactive)
112 | O=C(NC1CCS(=O)(=O)C1)c1ccccc1 (centres undefined) | > 4 mM (inactive)
113 | Clc1ccc(-c2nnc3ccccn23)cc1 | > 4 mM (inactive)
114 | COc1c2occc2cc2ccc(=O)oc12 | > 4 mM (inactive)
115 | O=C(Nc1ccon1)c1csc2ccccc12 | > 4 mM (inactive)
116 | Nc1ncnc2c1ncn2CCOc1ccccc1 | > 4 mM (inactive)
117 | CC(=O)Nc1ccc(C)cc1NC(C)=O | > 4 mM (inactive)
118 | CNC(=O)CC1Sc2ccccc2NC1=O (centres undefined) | > 4 mM (inactive)
119 | O=C1CCC(=O)N1c1cccc([N+](=O)[O-])c1 | > 4 mM (inactive)
120 | NC12CC3CC(C1)CC(C(=O)O)(C3)C2 | > 4 mM (inactive)
121 | Cn1c(C(=O)O)ccc1S(N)(=O)=O | > 4 mM (inactive)
122 | Cc1c(C(=O)OC(C)C)[nH]c2c1C(=O)CCC2 | > 4 mM (inactive)
123 | Cc1ccc(C)n1/N=C1\NC(=O)CS1 | > 4 mM (inactive)
124 | COCC(=O)Nc1cccc2ccccc12 | > 4 mM (inactive)
